The results in this text go back to the METLIN SMRT retention time set (Domingo-Almenara et al. 2019).

A short description of the series: gradient 5% acetonitrile 3 min, to 50% in 2 min, to 85% in 15 min, held 3 min, 100 µL/min. To be noted: column: Zorbax Extend-C18 2.1 x 50 mm; eluents: water / acetonitrile, 0.1% formic acid. In a few lines: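 Over 3 months, pure standards in mixtures of ~100 molecules were run by HPLC coupled to a quadrupole time-of-flight mass spectrometer in positive and negative ionization mode. The column was a Zorbax Extend-C18 (2.1 × 50 mm, 1.8 μm) at 100 μL/min, eluted with water and acetonitrile each holding 0.1% formic acid, with 40 μL dead and 900 μL dwell volumes. Retention time was determined from adduct peaks chosen by software and checked manually.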
In the case of `CSc1cccc(NC(=O)c2cccn2Cc2noc(C)n2)c1`, the RP-LC retention time turned out to be 899 s.
As for `CCN1CCN(C(=O)c2cn(-c3ccc(S(=O)(=O)N4CCCC(C)C4)cn3)cn2)CC1` (stereo not drawn), the figure is 659 s; as for `COc1ccccc1-c1noc(Cn2nc(-c3ccc4c(c3)OCO4)ccc2=O)n1`, 877 s.
As for `CCNC(=O)C1CCCN(c2nc3ncn(CC(=O)Nc4cc(C)cc(C)c4)c(=O)c3s2)C1` (stereo not drawn), the RP-LC retention time was 716 s.
As for `CCCn1c(=O)c2cc(C(=O)NCc3ccc(N4CCOCC4)cc3)nn2c2ccccc21`, the figure is 842 s; as for `CCOc1ccc(S(=O)(=O)N2CCc3c(c(-c4nnc(-c5ccccc5F)o4)nn3C)C2)cc1`, 945 s; as for `O=C(Nc1ccccn1)c1ccc(S(=O)(=O)NC2CCCC2)cc1`, 722 s.
As for `COCc1nc2cccnc2n1C1CCN(C(=O)Nc2ccc(Cl)cc2)CC1`, the figure is 744 s; as for `COc1cc(C(=O)Nc2nc(-c3ccc4c(c3)NC(=O)C(C)O4)cs2)cc(OC)c1OC` (stereo not drawn), 903 s; as for `CCn1ccc2sc(C)c(C(=O)N3CCCCCC3)c2c1=O`, 760 s.
For `O=C(Cn1c(=O)c2cc(C3CC3)nn2c2ncccc21)Nc1ccc(F)c(F)c1`, the RP-LC retention time turned out to be 792 s.
As for `COc1cc2ncc(S(=O)(=O)c3ccc(C)c(C)c3)c(N3CCN(C)CC3)c2cc1OC`, the figure is 629 s.
For the compound `C=CCNC(=O)NC1CCN(C2=NS(=O)(=O)C(c3cccc(Cl)c3)=C2C)CC1`, the RP-LC retention time stood at 861 s.
As to `COc1ccc(C2CC(=O)c3c(C)nc(N4CCN(CCO)CC4)nc3C2)cc1` (stereo not drawn), the RP-LC retention time came to 638 s.
On to `Cc1ccc(N2CCn3c2nc2c3c(=O)n(CC(=O)O)c(=O)n2C)cc1`, for which the RP-LC retention time was found to be 730 s.
`COc1cccc(CN2CCCCCCNC(=O)[C@@H]3CCC[C@@H]32)n1` yielded an RP-LC retention time of 660 s.
`Cc1ccccc1CNS(=O)(=O)c1c(C)sc(C)c1-c1n[nH]c(C)c1C` came in with an RP-LC retention time of 1060 s.
With `CCCN1CCN(C(=O)C2=NN(c3ccc(Cl)cc3)c3ncccc3S2(=O)=O)CC1`, the RP-LC retention time was 676 s.
Then `O=C(Nc1ccc2c(c1)N(C(=O)c1cccs1)CCC2)c1ccccc1Br`, with 850 s.
As for `C=CCn1c(SCC(=O)c2cc(C)n(CCOC)c2C)nc2sc(C)c(C)c2c1=O`, the figure is 1140 s.
Then `Cn1cnc(S(=O)(=O)N2CCC(C(=O)N3CCN(c4cccc(C(F)(F)F)c4)CC3)CC2)c1`, with 823 s; and `CCOC(=O)C1CCN(C(=O)C2COC3(CCCCC3)N2C(=O)c2cccc(Cl)c2)CC1` (stereo not drawn), with 958 s; and `Cn1cc(-c2cc3n(n2)CCC(=O)N3CCCC(=O)NCc2ccc3c(c2)OCO3)c2ccccc21`, with 795 s.
`COc1ccc(NC(=O)N2[C@H]3CC[C@@H]2c2cnc(-c4ccccc4)nc2C3)cc1OC`: the RP-LC retention time turned out to be 838 s.
As for `CCN(CC)C(=O)c1ccc2c(c1)N(Cc1ccc(F)cc1)C(=O)CO2`, the figure is 826 s; as for `CCNC(=O)N1CC(Oc2ccc(-c3nc(C)no3)cc2)C1`, 688 s; as for `CCc1nnc2cc(N3CCN(C(=O)c4ccc(OC)cc4)CC3)cnn12`, 615 s.
Then `COc1cc(CN2CC(c3nc(-c4ccsc4)nn3C)C2)ccc1OC(C)C`, with 684 s; and `O=S(=O)(c1ccc(-c2csc(Nc3cccc4ccccc34)n2)cc1)N1CCCCC1`, with 1280 s; and `Cc1ccc(CC(=O)N2CCC3(CC2)N=C(c2ccc(C)cc2)NO3)cc1`, with 874 s.
For the compound `O=C(c1cc(-c2ccncc2)n[nH]1)N1CCC(C(=O)N2CCc3ccccc3C2)CC1`, the RP-LC retention time was found to be 614 s.
As for `O=C(Nc1ccc2c(c1)OCCO2)N1CCC(OCCOc2ccccc2)CC1`, the figure is 891 s; as for `COCCn1c(C2CCN(S(=O)(=O)c3ccc(C(C)C)cc3)C2)nc2cccnc21` (stereo not drawn), 927 s; as for `O=C(NCCn1ncccc1=O)c1cccc(C(F)(F)F)c1`, 646 s.
As for `COc1cc(CC(=O)N2CCc3cc(-c4csc(C)n4)ccc32)cc(OC)c1`, the figure is 1020 s; as for `Cn1cc(CC(=O)NCc2cccc(Cl)c2)c2cccnc21`, 725 s; as for `O=C(Cn1cccc1-c1nnc(C2CCC2)o1)NCCc1ccc(Cl)cc1`, 766 s.
In turn, `CNC(=O)CCc1nc2ccccc2n(CC(=O)NCCc2ccc(S(N)(=O)=O)cc2)c1=O` came in with an RP-LC retention time of 612 s.
Then `CCOc1cc(C(=O)N2CCNC(=O)C2C)cc(OCC)c1OCC` (stereo not drawn), with 638 s; and `FC(F)(F)c1cccc(CN2CCCN(c3ncccc3-c3nc(C4CC4)no3)CC2)c1`, with 765 s; and `Cc1ccc(S(=O)(=O)CCc2noc(-c3sc(C)nc3C)n2)cc1`, with 818 s.
Then `Cc1ccc(NC(=O)c2cn(C)nc2S(=O)(=O)N2CCSCC2)cc1F`, with 981 s.
In turn, `CCCC(=O)Nc1ccc(OCc2cc(C(=O)NC(C)CC)no2)cc1` (stereo not drawn) returned an RP-LC retention time of 819 s.
For `CN1C(=O)C2CCCCN2c2ccc(C(=O)NCCc3c[nH]c4ccccc34)cc21` (stereo not drawn), the RP-LC retention time is 871 s.
Then `CCN1CCn2cc(S(=O)(=O)Nc3ccc(C)cc3F)cc2C1=O`, with 725 s; and `CCCS(=O)(=O)N1CCCN(C2=NS(=O)(=O)C(c3ccccc3)=C2C)CC1`, with 839 s.
Then `CCOC(=O)c1c(C)[nH]c(C(=O)N2CCCC(C(=O)NCCN3CCN(CC)CC3)C2)c1C` (stereo not drawn), with 567 s; and `COc1ccc(N2CCN(S(=O)(=O)c3cn(C)nc3C)CC2)cc1`, with 719 s; and `Cc1cc(-c2ccc(S(=O)(=O)N3CCC(C(=O)NCCC(C)C)CC3)o2)n[nH]1`, with 783 s.
With `CCC(C(=O)NCCc1c[nH]c2ccccc12)n1c2ccccc2c2cnn(C)c(=O)c21` (stereo not drawn), the RP-LC retention time stood at 916 s.
Then `Cc1noc(C2CN(C(=O)c3ccc4ncsc4c3)C2)n1`, with 593 s; and `CCc1ccc(C2=C(C)C(N3CCC(C(=O)NCCCN4CCCC4)CC3)=NS2(=O)=O)cc1`, with 604 s; and `COc1ccc(-c2cc3c(=O)n(CC(=O)N4CCN(c5ccccn5)CC4)nc(C)n3n2)cc1`, with 663 s.
As for `COc1ccc(NC(=O)C2CCCCC2)c2ccccc12`, the figure is 861 s; as for `Cc1nn(C)c(C)c1CCCN(C)C(=O)CCc1ccnc(N2CCOCC2)c1`, 521 s; as for `O=C(Cc1ccc(F)cc1)N1CCN(C(=O)c2nnn3c2COC(c2ccc(F)cc2)C3)CC1` (stereo not drawn), 861 s.
Regarding `CCOC(=O)c1ccc(NC(=O)C23CCC(C)(C(=O)C2)C3(C)C)cc1` (stereo not drawn), the RP-LC retention time was 897 s.
Take `Cc1ccccc1N1CCN(C(=O)c2cc(C)n3nccc3n2)CC1`: the RP-LC retention time turned out to be 883 s.
As for `CCc1cc(=O)n(Cc2ncc(C)c(OC)c2C)c(N2CCCC2)n1`, the figure is 554 s; as for `O=C(NCC1CCCCC1)C1CCCN(c2nnc3ccc(Cl)cn23)C1` (stereo not drawn), 839 s.
In turn, `O=C(NCc1ccccn1)c1c(OCC2CC2)cc(=O)n2c1CCCCC2` yielded an RP-LC retention time of 586 s.
`CCOC(=O)CCNC(=O)N1CCN(Cc2nc3cccnc3n2-c2ccc(F)cc2)CC1`: the RP-LC retention time amounted to 607 s.
Then `COc1cccc(N2CCN(C(=O)Cc3csc4nc(-c5ccccc5)cn34)CC2)c1`, with 833 s; and `O=C(CSc1nc(-c2ccccc2)ns1)OCc1ccccc1`, with 1160 s; and `Cc1ccc(-c2nc3cnccn3c2Nc2ccc(C)cc2Br)cc1`, with 1140 s.
For `CC(C)CN(Cc1ccc(F)cc1)Cc1cc(=O)n2cc(Cl)ccc2n1`, the RP-LC retention time is 706 s.
Then `CCOC(=O)c1[nH]c(C)c(C(=O)N2CCC(CC(=O)N3CCN(CC)CC3)CC2)c1C`, with 579 s.
In turn, `O=C(N1CC(Oc2ccccc2-c2nc(C3CC3)no2)C1)C1(c2ccccc2)CC1` gave an RP-LC retention time of 665 s.
As for `O=C(Nc1ccc(Cl)cc1)c1cc2c(cc1O)[nH]c1ccccc12`, the figure is 1210 s; as for `O=C(Cn1c(=O)cc(-c2nc(C3CC3)no2)c2ccccc21)NCc1ccccc1Cl`, 956 s; as for `Cc1ccc(-c2nnc(Cc3nc(-c4ccc(C(F)(F)F)cc4)no3)o2)cc1F`, 1180 s.
Take `COc1ccc(CN2C(=O)c3ccccc3C2C(=O)NCC2CCCO2)c(OC)c1` (stereo not drawn): the RP-LC retention time is 695 s.
Then `COc1ccc(-c2nnc(Cc3nc(-c4cccc(C)c4)no3)o2)cc1OC`, with 983 s; and `Cc1ccc(-n2nc(N3CCN(C(=O)Nc4ccccc4)CC3)ccc2=O)cc1`, with 780 s.
As for `Cn1c(C2CCN(C(=O)NCc3ccc(F)cc3)CC2)cc(=O)n2nccc12`, the figure is 644 s.
In turn, `Cc1sc2ccn(C)c(=O)c2c1C(=O)Nc1ccccc1` displayed an RP-LC retention time of 818 s.
As for `Cc1cc(-c2nnc(C3CCC3)o2)c(C)n1CC(=O)Nc1cccc(F)c1`, the figure is 900 s.
As for `CCn1nc(N2CCCC(NC(=O)C3(c4ccccc4)CCCC3)C2)ccc1=O` (stereo not drawn), the figure is 792 s.
